Reference: PubChem BioAssay AID1963860 (Molecular Pharmacology Branch, DTP, NCI, 2024)

Test system: CN0375-F725-PDC KRAS spheroid viability
Experiment: Anticancer human tumor CN0375-F725-PDC patient-derived colon carcinoma cell line growth inhibition [KRAS2]
Conditions: spheroids with HUVEC and MSC; for IC50: curve of first compound; for viability, T/C: stronger effect = lower value
Outline: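 KRAS-mutant tumor cells were grown as spheroids with HUVEC endothelial cells and human MSCs as stroma. Targeted agents were tested alone and with KRAS pathway inhibitors. Doses started at or near clinical Cmax, or 10 microM, descending half-log.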

[1] = second compound 0.0316 µM, first compound 0.0316 µM
[2] = second compound 0.0316 µM, first compound 0.1 µM
[3] = second compound 0.0316 µM, first compound 0.316 µM
[4] = second compound 0.0316 µM, first compound 1 µM
[5] = second compound 0.0316 µM, first compound 3.16 µM
[6] = second compound 0.0316 µM, first compound 10 µM
[7] = second compound 0.1 µM, first compound 0.0316 µM
[8] = second compound 0.1 µM, first compound 0.1 µM
[9] = second compound 0.1 µM, first compound 0.316 µM
[10] = second compound 0.1 µM, first compound 1 µM
[11] = second compound 0.1 µM, first compound 3.16 µM
[12] = second compound 0.1 µM, first compound 10 µM
[13] = second compound 0.316 µM, first compound 0.0316 µM
[14] = second compound 0.316 µM, first compound 0.1 µM
[15] = second compound 0.316 µM, first compound 0.316 µM
[16] = second compound 0.316 µM, first compound 1 µM
[17] = second compound 0.316 µM, first compound 3.16 µM
[18] = second compound 0.316 µM, first compound 10 µM
[19] = second compound 1 µM, first compound 0.0316 µM
[20] = second compound 1 µM, first compound 0.1 µM
[21] = second compound 1 µM, first compound 0.316 µM
[22] = second compound 1 µM, first compound 1 µM
[23] = second compound 1 µM, first compound 3.16 µM
[24] = second compound 1 µM, first compound 10 µM
[25] = second compound 3.16 µM, first compound 0.0316 µM
[26] = second compound 3.16 µM, first compound 0.1 µM
[27] = second compound 3.16 µM, first compound 0.316 µM
[28] = second compound 3.16 µM, first compound 1 µM
[29] = second compound 3.16 µM, first compound 3.16 µM
[30] = second compound 3.16 µM, first compound 10 µM
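Further: spheroids exposed to agents for 7 days.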

Row | SMILES | IC50 (second compound 0.1 µM) | IC50 (second compound 0.316 µM) | IC50 (second compound 1 µM) | IC50 (second compound 3.16 µM) | viability, T/C [7] | viability, T/C [8] | viability, T/C [9] | viability, T/C [10] | viability, T/C [11] | viability, T/C [13] | viability, T/C [14] | viability, T/C [15] | viability, T/C [16] | viability, T/C [17] | viability, T/C [19] | viability, T/C [20] | viability, T/C [21] | viability, T/C [22] | viability, T/C [23] | viability, T/C [25] | further results
1 | CC1OCC2(CCN(c3cnc(Sc4ccnc(N)c4Cl)c(N)n3)CC2)C1N (stereo not given) + C=CC(=O)N1CCN(c2nc(OCC3CCCN3C)nc3c2CCN(c2cccc4cccc(C)c24)C3)CC1CC#N | > 10 µM | > 10 µM | 8.24 µM | < 0.0316 µM | 102% | 90.9% | 77.7% | 80% | 74.4% | 102% | 89.9% | 81.8% | 78.3% | 71.4% | 83.2% | 86% | 73.5% | 61.8% | 64.2% | 30.2% | IC50 (second compound 0.0316 µM): > 10 µM; viability, T/C [1]: 99.2%; viability, T/C [2]: 90.6%; viability, T/C [3]: 77.1%; viability, T/C [4]: 81.9%; viability, T/C [5]: 79.7%; viability, T/C [6]: 63.7%; viability, T/C [12]: 62.9%; viability, T/C [18]: 60.4%; viability, T/C [24]: 46.5%; viability, T/C [26]: 18.2%; viability, T/C [27]: 14.2%; viability, T/C [28]: 13%; viability, T/C [29]: 13.2%; viability, T/C [30]: 9.43%
2 | Cn1nccc1Nc1nccc(-c2cc3c(s2)C(C)(C)N(CCN2CCOCC2)C3=O)n1 + C=CC(=O)N1CCN(c2nc(OCC3CCCN3C)nc3c2CCN(c2cccc4cccc(C)c24)C3)CC1CC#N | 2.98 µM | 2.23 µM | 0.739 µM | < 0.0316 µM | 95.7% | 93.4% | 77.2% | 63.4% | 50.4% | 91.5% | 91.3% | 70.3% | 60.3% | 46.9% | 87.6% | 82.8% | 52.4% | 47% | 39.1% | 27.7% | IC50 (second compound 0.0316 µM): 3.93 µM; viability, T/C [1]: 100%; viability, T/C [2]: 97.3%; viability, T/C [3]: 76.9%; viability, T/C [4]: 68.9%; viability, T/C [5]: 52.7%; viability, T/C [6]: 39%; viability, T/C [12]: 39.7%; viability, T/C [18]: 38%; viability, T/C [24]: 23.1%; viability, T/C [26]: 24.3%; viability, T/C [27]: 11.9%; viability, T/C [28]: 7.82%; viability, T/C [29]: 5.81%; viability, T/C [30]: 2.15%
3 | CC(=O)OC12COC1CC(O)C1(C)C(=O)C(O)C3=C(C)C(OC(=O)C(O)C(NC(=O)OC(C)(C)C)c4ccccc4)CC(O)(C(OC(=O)c4ccccc4)C21)C3(C)C (stereo not given) + CC1OCC2(CCN(c3cnc(Sc4ccnc(N)c4Cl)c(N)n3)CC2)C1N | > 3.16 µM | > 3.16 µM | > 3.16 µM | > 3.16 µM | 93.2% | 83.8% | 79.1% | 79.6% | 71.5% | 88.4% | 79.4% | 74.7% | 71.8% | 71.8% | 102% | 87.5% | 83.8% | 80.7% | 76.7% | 74.8% | IC50 (second compound 10 µM): > 3.16 µM; viability, T/C (second compound 0.1 µM, first compound 0.01 µM): 93.5%; viability, T/C (second compound 0.316 µM, first compound 0.01 µM): 91.5%; viability, T/C (second compound 1 µM, first compound 0.01 µM): 95.6%; viability, T/C (second compound 3.16 µM, first compound 0.01 µM): 77.6%; viability, T/C [26]: 68%; viability, T/C [27]: 64%; viability, T/C [28]: 64.5%; viability, T/C [29]: 58.6%; viability, T/C (second compound 10 µM, first compound 0.01 µM): 73.9%; viability, T/C (second compound 10 µM, first compound 0.0316 µM): 70.1%; viability, T/C (second compound 10 µM, first compound 0.1 µM): 67.2%; viability, T/C (second compound 10 µM, first compound 0.316 µM): 59.8%; viability, T/C (second compound 10 µM, first compound 1 µM): 57.2%; viability, T/C (second compound 10 µM, first compound 3.16 µM): 53.2%
